Test results published in PMC8645223, “Development of a simple and miniaturized sandwich-like fluorescence polarization assay for rapid screening of SARS-CoV-2 main protease inhibitors” (Cell & Bioscience, 2021).

What was measured:
[1] = tested on: COc1ccc2c(CC(=O)N[C@@H](C)C(=O)N[C@H](C(=O)N[C@@H](CC(C)C)C(=O)N[C@@H](CCC(N)=O)C(=O)N[C@@H](CO)C(=O)NCC(=O)N[C@@H](Cc3ccccc3)C(=O)N[C@@H](CCCNC(=N)N)C(=O)N[C@@H](CCCCNc3ccc([N+](=O)[O-])cc3[N+](=O)[O-])C(=O)N[C@@H](CCCCN)C(N)=O)C(C)C)cc(=O)oc2c1; experiment: purified protein, by the assay type; conditions: pH 8.0
SARS-CoV-2 Mpro [2] = target: T1, SARS-CoV-2 Mpro (Severe acute respiratory syndrome coronavirus 2, UniProt P0DTD1); experiment: sandwich-like FP screening assay; assay type: biochemical
SARS-CoV-2 Mpro [3] = target: T1, SARS-CoV-2 Mpro; experiment: SPR binding assay
Experimental: The binding affinity between dieckol and Mpro was measured using a real-time SPR spectroscopy instrument (Reichert 2SPR, Buffalo, USA). In all, 20 µL Mpro (1.6 mg/mL) in 10 mM NaAc buffer (pH5.5) was immobilized to a surface activated CM5 gold biosensor (Reichert Inc., New York, USA), and the active sites were quenched with 1 M ethanolamine buffer (pH8.0). After washing the sample loop, an indicated concentration of dieckol (0, 6.25, 12.5, 25 µM) was separately injected on the surface of the Mpro-captured biosensor at RT. The binding time of the analyte to the ligand was 90 s, and the dissociation kinetic was recorded during 330 s. Finally, the real RIU was continuously monitored, and the RIU can be related to arbitrary resonance unit (RU) as 1 µRIU = 0.733 RU. The KD value was calculated using the analyte binding kinetic curve plotted by Trace Drawer software (Ridgeview Instruments, Sweden).

SARS-CoV-2 Mpro [4] = target: T1, SARS-CoV-2 Mpro; experiment: FRET assay, inhibition of Mpro proteolytic activity; assay type: biochemical; conditions: for IC50: IC50, FRET assay
Experimental: As described previously, the inhibitory activity of dieckol against Mpro was preformed using a FRET assay. In brief, 50 µL sample of Mpro (0.4 µM) was preincubated with the indicated concentrations of dieckol (initial concentration: 100 µM, 8 two-fold dilutions) at RT for 35 min in FP assay buffer, and the reaction was initiated by adding 5 µM FRET substrate. DMSO and GC-376 (1 µM) was used as a negative and positive control, respectively. The RFU change was separately measured as described previously every second for 3 min by a microplate reader. The VI was calculated by a slope of the linear regression in the first 30 s, and the IC50 value was calculated using the following equation:3 Dieckolinhibition(%)=1-VIDieckol/VIDMSO×100%
To clarify the inhibitory mechanism of dieckol, the fixed concentrations of dieckol (0, 2, 4, 6 µM) were separately added to 50 µL sample of Mpro (0.4 µM), and the mixture was preincubated for 10 min at RT. After adding 5 µM FRET substrate, the VI was measured using a FRET assay. The inhibition mechanism of dieckol was inferred using the LB plot and a Ki value was generated by its secondary plot.

Row | Compound | Km [1] [µM] | IC50 (SARS-CoV-2 Mpro [2]; absence of DTT) [µM] | IC50 (SARS-CoV-2 Mpro [2]; presence of 1 mM DTT) [µM] | Kd (SARS-CoV-2 Mpro [3]) [µM] | kd (SARS-CoV-2 Mpro [3]; SPR dissociation rate) [s⁻¹] | Ki (SARS-CoV-2 Mpro [4]) [µM] | IC50 (SARS-CoV-2 Mpro [4]; absence of DTT) [µM] | IC50 (SARS-CoV-2 Mpro [4]; presence of 1 mM DTT) [µM] | inhibition mechanism (SARS-CoV-2 Mpro [4]; Lineweaver-Burk plot, same Vmax, varying Km)
1 | SARS-CoV-2 Mpro (Severe acute respiratory syndrome coronavirus 2) | 19.78 |  |  |  |  |  |  |  | 
2 | Oc1cc(O)cc(Oc2c(O)cc(O)c3c2Oc2c(O)cc(Oc4c(O)cc(Oc5c(O)cc(O)c6c5Oc5c(O)cc(O)cc5O6)cc4O)cc2O3)c1 [dieckol] |  | 2.9 ± 0.2 | 4.5 ± 0.4 | 0.22 | 0.000226 | 3.3 | 1.8 ± 0.2 | 3.8 ± 0.3 | competitive inhibitor
